Assay results published in patent publication US9273151B2, “Proteinaceous-substance-binding low-molecular-weight compound” (Kaneka Corporation, priority 2011, dated 2016).

Test system: IgG-Fc (Fc fragment of IgG preparation derived from human plasma)
Assay: Biacore 3000 surface plasmon resonance analysis of the affinity of the low-molecular-weight compound for IgG-Fc
Details: IgG-Fc immobilized on sensor chip CM5; compound 25 μM to 100 μM in running buffer pH 7.4, 5% DMSO; 25° C.; 1:1 binding model fit
Procedure: An Fc fragment was prepared by fragmenting an IgG preparation derived from human plasma as a raw material into a Fab fragment and an Fc fragment using papain and separating the Fc fragment only to be purified. Gammagard, which is an IgG preparation derived from human plasma and which was manufactured by Baxter, was dissolved into a buffer solution for papain digestion which contained 0.1 M AcOH—AcONa, 2 mM EDTA and 1 mM cysteine and of which pH was 5.5, and Papain Agarose from papaya latex (papain-immobilized agarose, manufactured by SIGMA) was added to the solution. The mixture was mixed using a rotator and incubated at 37° C. for about 8 hours. The reaction mixture, which contained both of a Fab fragment and an Fc fragment, was separated from the papain-immobilized agarose. The Fc fragment was separated to be purified from the reaction mixture by affinity chromatography using Protein A column (MabSelect, manufactured by GE Healthcare Company). Hereinafter, the Fc fragment is referred to as “IgG-Fc”. Specifically, the reaction mixture, which contained both of a Fab fragment and an Fc fragment, was diluted with a phosphate buffer (20 mM NaH2PO4—Na2HPO4, 150 mM NaCl, pH 7.4) so that the pH became about 7.4. The diluted mixture was added to a Protein A column which was equilibrated using a phosphate buffer, and the column was washed with a phosphate buffer. Then, an IgG-Fc solution was obtained by using an eluent buffer B (100 mM citric acid, pH 3.0) to elute the IgG-Fc. The above-described protein purification by chromatography was carried out using AKTAprime plus system manufactured by GE Healthcare Company.
The analysis of the affinity between the low-molecular-weight compound and IgG-Fc was carried out using Biacore 3000, which was manufactured by GE Healthcare Company and in which surface plasmon resonance was utilized, under the following protocol. All of the sensor chip and reagents used in the following protocol were manufactured by GE Healthcare Company. The low-molecular-weight compounds (2) to (17) of which binding properties were evaluated were obtained from Namiki Shoji Co., Ltd.
The IgG-Fc obtained in the Example 1 was diluted 50-fold with a buffer for immobilization (10 mM CH3COOH—CH3COONa, pH 4.5), and the IgG-Fc was immobilized on a sensor chip CM5 in accordance with the protocol provided with Biacore 3000. The immobilization of the IgG-Fc on the sensor chip CM5 was carried out by amine coupling method using N-hydroxysuccinimide (NHS) and N-ethyl-N′-(3-dimethylaminopropyl)carbodiimide hydrochroride (EDC), and ethanolamine was used for blocking. In addition, a reference cell was prepared as a negative control by activating other flow cell on a chip by EDC/NHS and then immobilizing ethanolamine.
A ligand of any one of the low-molecular-weight compounds (2) to (17) was flowed on the above sensor chip to detect an interaction. Specifically, each of the low-molecular-weight compound (2) to (17) to be measured was diluted with a running buffer (20 mM NaH2PO4—Na2HPO4, 150 mM NaCl, 0.005% P-20, 5% DMSO, pH 7.4) to prepared three or four kinds of diluted solutions of which concentrations were different each other within the range of 25 μM to 100 μM with respect to each compound. The prepared solutions of the each low-molecular-weight compound were added to the sensor chip at a flow rate of 30 μL/min for 120 seconds. Binding reaction curves were orderly observed at the time of addition (binding phase, for 120 seconds) and after the addition (dissociation phase, for 120 second) at the measurement temperature of 25° C. After the each observation, 40 mM NaOH was added for 15 seconds to regenerate the sensor chip. A binding reaction curve of a sample containing DMSO was corrected using a Biacore correction tool manufactured by GE Healthcare Company with respect to the obtained binding curves (see FIGS. 1 to 4). […]

Row | KA × 10^4 (M^−1), coupling/binding constant KA=Kon/Koff | SMILES
1 | 0.05 × 10^4 M^−1 | Cc1cc(C(=O)CSc2nc(N)cc(N)n2)c(C)n1Cc1ccc2c(c1)OCO2 [(17)]
2 | 0.12 × 10^4 M^−1 | Cc1ccc(C(=O)C(C)Sc2nnnn2-c2ccc(O)cc2)cc1 (stereo not shown) [(15)]
3 | 0.17 × 10^4 M^−1 | CC(Sc1nnnn1-c1ccc(O)cc1)C(=O)c1ccc(F)c(F)c1 (stereo not shown) [(13)]
4 | 13 × 10^4 M^−1 | O=c1cc(CSc2ncnc3c2cnn3-c2ccccc2)c2cc(O)c(O)cc2o1 [compound (2)]
5 | 0.37 × 10^4 M^−1 | O=C1Sc2c(S(=O)(=O)Nc3ccc(O)cc3)cc(S(=O)(=O)Nc3ccc(O)cc3)c3cccc1c23 [(11)]
6 | 0.16 × 10^4 M^−1 | CN(c1ccc(O)cc1)c1nc(S(=O)(=O)c2ccccc2)c(Cl)s1 [(14)]
7 | 0.2 × 10^4 M^−1 | Nc1ccc(Oc2nc(Oc3ccc(N)cc3)c(F)c(Oc3ccc(N)cc3)c2F)cc1 [(12)]
8 | 5.1 × 10^4 M^−1 | O=C(CSc1nnc2sc3ccccc3n12)c1ccc(O)c(O)c1 [(4)]
9 | 5.1 × 10^4 M^−1 | O=C(CSc1ncnc2c1cnn2-c1ccccc1)c1ccc(O)c(O)c1 [(3)]
10 | 4.6 × 10^4 M^−1 | O=C(CSc1nnc(SCc2cccc3ccccc23)s1)c1ccc(O)c(O)c1 [(5)]
11 | 0.95 × 10^4 M^−1 | Nc1cccc(Oc2cccc(Oc3cccc(N)c3)c2)c1 [(8)]
12 | 0.4 × 10^4 M^−1 | Oc1ccc(-c2csc(COc3ccccc3)n2)cc1O [(10)]
13 | 0.06 × 10^4 M^−1 | Cc1ccc(OCc2nc(CSc3nc(N)cc(N)n3)cs2)cc1 [(16)]
14 | 0.48 × 10^4 M^−1 | O=C1N/C(=C\c2ccc(O)c(Br)c2)C(=O)N1Cc1ccc(Cl)cc1 [(9)]
15 | 0.96 × 10^4 M^−1 | CN(c1ccc(O)cc1)c1ncc([N+](=O)[O-])c(N(C)c2ccc(O)cc2)n1 [(7)]

Row | SMILES | KA × 10^4 (M^−1), coupling/binding constant KA=Kon/Koff
16 | CC(C)(c1ccc(O)cc1)c1cccc(C(C)(C)c2ccc(O)cc2)c1 [(6)] | 2.9 × 10^4 M^−1
